According to patent US20050112573A1, “Method of detecting toxic substance” (priority 2001, published 2005):

Test system: yeast genes (level of expressed mRNA)
Experiment: DNA chip analysis of expressed mRNA of yeast genes after 2 h culture with a toxic chemical substance
Type: cell-based, Saccharomyces cerevisiae S288C
Method in brief: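 Values are treated-to-control fluorescence ratios from a whole-yeast-genome DNA chip (65° C, over 12 h hybridization) using Cy3/Cy5-labelled cDNA from mRNA. Log-phase S288C cells in YPD at 25° C were exposed 2 h to a toxicant at sublethal, growth-inhibiting concentration.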

sodium dodecylbenzosulfonate [(17)]
level of expressed mRNA in the presence of chemical substance/in its absence (gene YGL104C): 1.3
level of expressed mRNA in the presence of chemical substance/in its absence (gene YGL126W): 0.9
level of expressed mRNA in the presence of chemical substance/in its absence (gene YGL134W): 0.9
level of expressed mRNA in the presence of chemical substance/in its absence (gene YGL154C): 1.0
The level of expressed mRNA in the presence of chemical substance/absence: YGL183C (gene YGL183C): 1.4
level of expressed mRNA in the presence of chemical substance/in its absence (gene YGL209W): 1.1
The level of expressed mRNA in the presence of chemical substance/absence: YGL223C (gene YGL223C): 0.8
level of expressed mRNA in the presence of chemical substance/in its absence (gene YGL253W): 0.7
The level of expressed mRNA in the presence of chemical substance/absence: YGR038W (gene YGR038W): 1.1
level of expressed mRNA in the presence of chemical substance/in its absence (gene YGR060W): 1.3
The level of expressed mRNA in the presence of chemical substance/absence: YGR139W (gene YGR139W): 1.0
The level of expressed mRNA in the presence of chemical substance/absence: YGR156W (gene YGR156W): 0.8
The level of expressed mRNA in the presence of chemical substance/absence: YGR198W (gene YGR198W): 1.1
The level of expressed mRNA in the presence of chemical substance/absence: YGR210C (gene YGR210C): 1.1
The level of expressed mRNA in the presence of chemical substance/absence: YGR211W (gene YGR211W): 0.5
The level of expressed mRNA in the presence of chemical substance/absence: YGR237C (gene YGR237C): 0.9
The level of expressed mRNA in the presence of chemical substance/absence: YGR243W (gene YGR243W): 2.1
The level of expressed mRNA in the presence of chemical substance/absence: YGR250C (gene YGR250C): 1.3
The level of expressed mRNA in the presence of chemical substance/absence: YGR266W (gene YGR266W): 0.7
The level of expressed mRNA in the presence of chemical substance/absence: YGR277C (gene YGR277C): 1.3
level of expressed mRNA in the presence of chemical substance/in its absence (gene YGR282C): 1.1
The level of expressed mRNA in the presence of chemical substance/absence: YGR293C (gene YGR293C): 0.8
The level of expressed mRNA in the presence of chemical substance/absence: YHL006C (gene YHL006C): 1.1
The level of expressed mRNA in the presence of chemical substance/absence: YHL021C (gene YHL021C): 1.3
The level of expressed mRNA in the presence of chemical substance/absence: YHL037C (gene YHL037C): 0.9
level of expressed mRNA in the presence of chemical substance/in its absence (gene YHR037W): 1.0
The level of expressed mRNA in the presence of chemical substance/absence: YHR083W (gene YHR083W): 0.8
level of expressed mRNA in the presence of chemical substance/in its absence (gene YHR092C): 0.9
The level of expressed mRNA in the presence of chemical substance/absence: YHR095W (gene YHR095W): 0.8
The level of expressed mRNA in the presence of chemical substance/absence: YHR105W (gene YHR105W): 1.0
The level of expressed mRNA in the presence of chemical substance/absence: YHR134W (gene YHR134W): 1.3
level of expressed mRNA in the presence of chemical substance/in its absence (gene YHR137W): 0.8
The level of expressed mRNA in the presence of chemical substance/absence: YHR180W (gene YHR180W): 0.8
The level of expressed mRNA in the presence of chemical substance/absence: YHR181W (gene YHR181W): 0.9
level of expressed mRNA in the presence of chemical substance/in its absence (gene YHR190W): 1.3
level of expressed mRNA in the presence of chemical substance/in its absence (gene YIL033C): 1.0
The level of expressed mRNA in the presence of chemical substance/absence: YIL108W (gene YIL108W): 1.2
The level of expressed mRNA in the presence of chemical substance/absence: YIL127C (gene YIL127C): 0.7
level of expressed mRNA in the presence of chemical substance/in its absence (gene YIL154C): 1.2
The level of expressed mRNA in the presence of chemical substance/absence: YIL165C (gene YIL165C): 1.4
level of expressed mRNA in the presence of chemical substance/in its absence (gene YIL167W): 0.7
level of expressed mRNA in the presence of chemical substance/in its absence (gene YIR035C): 1.1
The level of expressed mRNA in the presence of chemical substance/absence: YJL017W (gene YJL017W): 1.0
The level of expressed mRNA in the presence of chemical substance/absence: YJL032W (gene YJL032W): 1.1
The level of expressed mRNA in the presence of chemical substance/absence: YJL037W (gene YJL037W): 1.3
The level of expressed mRNA in the presence of chemical substance/absence: YJL049W (gene YJL049W): 0.9
level of expressed mRNA in the presence of chemical substance/in its absence (gene YJL088W): 1.4
The level of expressed mRNA in the presence of chemical substance/absence: YJL097W (gene YJL097W): 1.2
level of expressed mRNA in the presence of chemical substance/in its absence (gene YJL132W): 1.3
level of expressed mRNA in the presence of chemical substance/in its absence (gene YJL196C): 0.9
The level of expressed mRNA in the presence of chemical substance/absence: YJR030C (gene YJR030C): 0.7
The level of expressed mRNA in the presence of chemical substance/absence: YJR044C (gene YJR044C): 1.8
level of expressed mRNA in the presence of chemical substance/in its absence (gene YJR142W): 1.2
level of expressed mRNA in the presence of chemical substance/in its absence (gene YJR148W): 1.3
level of expressed mRNA in the presence of chemical substance/in its absence (gene YJR159W): 1.7
The level of expressed mRNA in the presence of chemical substance/absence: YKL051W (gene YKL051W): 1.5
The level of expressed mRNA in the presence of chemical substance/absence: YKL059C (gene YKL059C): 1.1
level of expressed mRNA in the presence of chemical substance/in its absence (gene YKL067W): 1.4
The level of expressed mRNA in the presence of chemical substance/absence: YKL090W (gene YKL090W): 0.7
The level of expressed mRNA in the presence of chemical substance/absence: YKL094W (gene YKL094W): 1.2
The level of expressed mRNA in the presence of chemical substance/absence: YKL097C (gene YKL097C): 1.1
The level of expressed mRNA in the presence of chemical substance/absence: YKL100C (gene YKL100C): 0.7
level of expressed mRNA in the presence of chemical substance/in its absence (gene YKR039W): 0.9
The level of expressed mRNA in the presence of chemical substance/absence: YKR040C (gene YKR040C): 0.7
The level of expressed mRNA in the presence of chemical substance/absence: YLR097C (gene YLR097C): 1.1
level of expressed mRNA in the presence of chemical substance/in its absence (gene YLR142W): 1.9
level of expressed mRNA in the presence of chemical substance/in its absence (gene YLR180W): 0.8
The level of expressed mRNA in the presence of chemical substance/absence: YLR226W (gene YLR226W): 1.1
level of expressed mRNA in the presence of chemical substance/in its absence (gene YLR273C): 1.0
level of expressed mRNA in the presence of chemical substance/in its absence (gene YLR300W): 0.7
level of expressed mRNA in the presence of chemical substance/in its absence (gene YLR307W): 1.1
The level of expressed mRNA in the presence of chemical substance/absence: YLR338W (gene YLR338W): 0.8
The level of expressed mRNA in the presence of chemical substance/absence: YLR339C (gene YLR339C): 0.7
The level of expressed mRNA in the presence of chemical substance/absence: YLR392C (gene YLR392C): 0.8
The level of expressed mRNA in the presence of chemical substance/absence: YLR415C (gene YLR415C): 0.8
The level of expressed mRNA in the presence of chemical substance/absence: YLR427W (gene YLR427W): 1.0
The level of expressed mRNA in the presence of chemical substance/absence: YML013W (gene YML013W): 1.1
The level of expressed mRNA in the presence of chemical substance/absence: YML029W (gene YML029W): 1.2
The level of expressed mRNA in the presence of chemical substance/absence: YML041C (gene YML041C): 1.3
The level of expressed mRNA in the presence of chemical substance/absence: YML079W (gene YML079W): 1.4
level of expressed mRNA in the presence of chemical substance/in its absence (gene YML110C): 1.1
The level of expressed mRNA in the presence of chemical substance/absence: YML118W (gene YML118W): 1.5
The level of expressed mRNA in the presence of chemical substance/absence: YMR068W (gene YMR068W): 1.3
The level of expressed mRNA in the presence of chemical substance/absence: YMR071C (gene YMR071C): 1.2
level of expressed mRNA in the presence of chemical substance/in its absence (gene YMR105C): 1.6
The level of expressed mRNA in the presence of chemical substance/absence: YMR114C (gene YMR114C): 1.0
The level of expressed mRNA in the presence of chemical substance/absence: YMR115W (gene YMR115W): 1.0
The level of expressed mRNA in the presence of chemical substance/absence: YMR160W (gene YMR160W): 0.9
level of expressed mRNA in the presence of chemical substance/in its absence (gene YMR189W): 1.0
The level of expressed mRNA in the presence of chemical substance/absence: YMR258C (gene YMR258C): 1.1
level of expressed mRNA in the presence of chemical substance/in its absence (gene YMR271C): 1.3
level of expressed mRNA in the presence of chemical substance/in its absence (gene YMR272C): 1.3
level of expressed mRNA in the presence of chemical substance/in its absence (gene YMR296C): 0.8
level of expressed mRNA in the presence of chemical substance/in its absence (gene YNL012W): 1.3
The level of expressed mRNA in the presence of chemical substance/absence: YNL026W (gene YNL026W): 1.0
